Series [1] can be described thus: Cytotoxicity against human HePAD38 cells assessed as reduction in cell viability by CCK-8 assay. Type of series: toxicity, cell-based.
A further series concerns Hepatitis B virus. The experiment in a line: Antiviral activity against HBV infected human HePAD38 cells assessed as reduction of HBV DNA level with compound replacement for every 3 days and measured on day 6 by qPCR analysis. Type of series: functional, organism-based.
A short description of series [2]: Selectivity index, ratio of CC50 for cytotoxicity against human HePAD38 cells assessed as reduction in cell viability to EC50 for antiviral activity against HBV infected human HePAD38 cells assessed as reduction of HBV DNA level. Type of series: toxicity, cell-based. The settings on record: read-out: Ratio CC50/EC50.

As to `CCOC(=O)C1=C(CN2CCN(C(C(=O)O)c3ccc(OC)c(OC)c3)CC2)NC(c2nccs2)=NC1c1ccc(F)cc1Br` (centres undefined), the 50% cytotoxic concentration (CC50) in series [1] is above 50 µM. Further, the EC50 in the series on Hepatitis B virus was above 10 µM.
Take `CCOC(=O)C1=C(CN2CCN(C(C(=O)O)c3cccc4ccccc34)CC2)NC(c2nccs2)=NC1c1ccc(F)cc1Br` (centres undefined): the CC50 in series [1] was found to be 22.4 µM. Moreover, the EC50 in the series on Hepatitis B virus is 0.85 µM. Further, in series [2], the selectivity ratio was 26.3.
`CCOC(=O)C1=C(CN2CCN(C(C(=O)O)c3ccc4c(c3)OCO4)CC2)NC(c2nccs2)=NC1c1ccc(F)cc1Br` (centres undefined): the CC50 in series [1] turned out to be 22.4 µM. Moreover, in the series on Hepatitis B virus, the EC50 was 2.46 µM. The selectivity ratio in series [2] was found to be 9.1.
As to `CCOC(=O)C1=C(CN2CCN(C(C(=O)O)c3ccsc3)CC2)NC(c2nccs2)=NC1c1ccc(F)cc1Br` (centres undefined), the CC50 in series [1] was above 50 µM. Moreover, the EC50 in the series on Hepatitis B virus was determined as 0.07 µM. For the same compound, the selectivity ratio in series [2] was found to be 962.
Turning to `CCOC(=O)C1=C(CN2CCN(C(C(=O)O)c3ccc(O)cc3)CC2)NC(c2nccs2)=NC1c1ccc(F)cc1Br` (centres undefined), the CC50 in series [1] was 22.4 µM. Besides, in the series with Hepatitis B virus, the half-maximal effective concentration (EC50) is 6.3 µM. For the same compound, the selectivity ratio in series [2] was 3.5.
For the compound `C#Cc1cccc(C(C(=O)O)N2CCN(CC3=C(C(=O)OCC)C(c4ccc(F)cc4Br)N=C(c4nccs4)N3)CC2)c1` (centres undefined), the CC50 in series [1] amounted to 22.4 µM. Besides, the EC50 in the series on Hepatitis B virus is above 10 µM. For the same compound, the selectivity ratio in series [2] is below 2.2.
On to `CCOC(=O)C1=C(CN2CCN(C(C(=O)O)C3=CCCC3)CC2)NC(c2nccs2)=NC1c1ccc(F)cc1Br` (centres undefined), for which, in series [1], the 50% cytotoxic concentration (CC50) is above 50 µM. The concentration giving a half-maximal response (EC50) in the series on Hepatitis B virus was found to be 0.5 µM. For the same compound, the selectivity ratio in series [2] was above 100.
As to `CCOC(=O)C1=C(CN2CCN(C(C(=O)O)c3ccccc3C#N)CC2)NC(c2nccs2)=NC1c1ccc(F)cc1Br` (centres undefined), the CC50 in series [1] was 50 µM. Further, the EC50 with Hepatitis B virus was 5.36 µM. Further, in series [2], the selectivity ratio worked out at 9.3.
For the compound `CCOC(=O)C1=C(CN2CCN(C(C(=O)O)c3cccc(F)c3)CC2)NC(c2nccs2)=NC1c1ccc(F)cc1Br` (centres undefined), the CC50 in series [1] is 22.4 µM. Further, the EC50 in the series on Hepatitis B virus is above 10 µM. Moreover, the selectivity ratio in series [2] is below 2.2.
With `CCOC(=O)C1=C(CN2CCN(C(C(=O)O)c3cccc(O)c3)CC2)NC(c2nccs2)=NC1c1ccc(F)cc1Br` (centres undefined), the half-maximal cytotoxic concentration (CC50) in series [1] is above 50 µM. Also, the EC50 in the series on Hepatitis B virus is 2.38 µM. Besides, the selectivity ratio in series [2] is above 21.
As for `CCOC(=O)C1=C(CN2CCN(C(C(=O)O)c3cccc(C=O)c3)CC2)NC(c2nccs2)=NC1c1ccc(F)cc1Br` (centres undefined), the CC50 in series [1] was above 50 µM. For the same compound, the 50% effective concentration (EC50) in the series with Hepatitis B virus is above 10 µM. Further, the selectivity ratio in series [2] stood at 2440.
For the compound `CCOC(=O)C1=C(CN2CCN(C(C(=O)O)c3cccc(C(F)F)c3)CC2)NC(c2nccs2)=NC1c1ccc(F)cc1Br` (centres undefined), in series [1], the CC50 turned out to be 22.4 µM. The 50% effective concentration (EC50) with Hepatitis B virus was above 10 µM. In addition, the selectivity ratio in series [2] was below 2.2.
In the case of `CCOC(=O)C1=C(CN2CCN(C(C(=O)O)c3cccc(C#N)c3)CC2)NC(c2nccs2)=NC1c1ccc(F)cc1Br` (centres undefined), the CC50 in series [1] worked out at 22.4 µM. Also, the EC50 in the series with Hepatitis B virus was above 10 µM. Moreover, the selectivity ratio in series [2] was below 2.2.
As to `CCOC(=O)C1=C(CN2CCN(C(C(=O)O)c3ccc(CC)cc3)CC2)NC(c2nccs2)=NC1c1ccc(F)cc1Br` (centres undefined), the CC50 in series [1] worked out at 22.4 µM. Further, in the series on Hepatitis B virus, the EC50 worked out at 0.46 µM. For the same compound, the selectivity ratio in series [2] turned out to be 41.4.
`CCOC(=O)C1=C(CN2CCN(C(C(=O)O)c3ccc4occc4c3)CC2)NC(c2nccs2)=NC1c1ccc(F)cc1Br` (centres undefined): the 50% cytotoxic concentration (CC50) in series [1] came out at 22.4 µM. In addition, in the series on Hepatitis B virus, the EC50 was determined as 2.28 µM. Also, in series [2], the selectivity ratio came out at 9.8.
Regarding `CCOC(=O)C1=C(CN2CCN(C(C(=O)O)c3ccc(OC)cc3)CC2)NC(c2nccs2)=NC1c1ccc(F)cc1Br` (centres undefined), in series [1], the 50% cytotoxic concentration (CC50) is 29.2 µM. In the series on Hepatitis B virus, the EC50 was above 10 µM. For the same compound, the selectivity ratio in series [2] was below 2.9.
Regarding `CCOC(=O)C1=C(CN2CCN(C(C(=O)O)c3cccc(C)c3)CC2)NC(c2nccs2)=NC1c1ccc(F)cc1Br` (centres undefined), in series [1], the CC50 worked out at 22.4 µM. In addition, in the series on Hepatitis B virus, the EC50 came out at 2.52 µM. Moreover, in series [2], the selectivity ratio was determined as 8.9.
Taken in the same sequence, the figures for `CCOC(=O)C1=C(CN2CCN(C(C(=O)O)c3ccccc3C)CC2)NC(c2nccs2)=NC1c1ccc(F)cc1Br` (centres undefined) were 22.4 µM, 0.58 µM and 30.2.
For the compound `C=Cc1ccc(C(C(=O)O)N2CCN(CC3=C(C(=O)OCC)C(c4ccc(F)cc4Br)N=C(c4nccs4)N3)CC2)cc1` (centres undefined), the half-maximal cytotoxic concentration (CC50) in series [1] turned out to be 22.4 µM. In addition, in the series with Hepatitis B virus, the EC50 amounted to 3.78 µM. In addition, the selectivity ratio in series [2] worked out at 5.9.
Turning to `CCOC(=O)C1=C(CN2CCN(C(C(=O)O)c3ccoc3)CC2)NC(c2nccs2)=NC1c1ccc(F)cc1Br` (centres undefined), the CC50 in series [1] was above 50 µM. For the same compound, in the series on Hepatitis B virus, the EC50 is above 10 µM.
On to `CCOC(=O)C1=C(CN2CCN(C(C(=O)O)c3ccc(F)cc3)CC2)NC(c2nccs2)=NC1c1ccc(F)cc1Br` (centres undefined), for which the CC50 in series [1] stood at 29.2 µM. Moreover, in the series on Hepatitis B virus, the EC50 was above 10 µM. In series [2], the selectivity ratio was below 2.9.
In the case of `CCOC(=O)C1=C(CN2CCN(C(C(=O)O)c3cccc(C(F)(F)F)c3)CC2)NC(c2nccs2)=NC1c1ccc(F)cc1Br` (centres undefined), in series [1], the CC50 was found to be 22.4 µM. In the series with Hepatitis B virus, the EC50 is 9.98 µM. In addition, the selectivity ratio in series [2] came out at 2.2.
For `CCOC(=O)C1=C(CN2CCN(C(C(=O)O)c3ccccc3)CC2)NC(c2nccs2)=NC1c1ccc(F)cc1Br` (centres undefined), in series [1], the CC50 is above 50 µM. Moreover, the EC50 in the series with Hepatitis B virus turned out to be 2.69 µM. In addition, the selectivity ratio in series [2] is above 18.6.
Taken in the same sequence, the figures for `CCOC(=O)C1=C(CN2CCN(C(C(=O)O)c3ccc(C)cc3)CC2)NC(c2nccs2)=NC1c1ccc(F)cc1Br` (centres undefined) were 22.4 µM, 8.48 µM and 2.6.
In the case of `CCOC(=O)C1=C(CN2CCN(C(C(=O)O)c3ccccc3O)CC2)NC(c2nccs2)=NC1c1ccc(F)cc1Br` (centres undefined), the cytotoxic concentration (CC50) in series [1] came out at 22.4 µM. The EC50 with Hepatitis B virus is 6.48 µM. For the same compound, the selectivity ratio in series [2] stood at 3.4.
For the compound `CCOC(=O)C1=C(CN2CCN(C(C(=O)O)c3ccc(C=O)cc3)CC2)NC(c2nccs2)=NC1c1ccc(F)cc1Br` (centres undefined), in series [1], the CC50 is above 50 µM. In addition, the EC50 with Hepatitis B virus amounted to 3.87 µM. The selectivity ratio in series [2] was above 12.9.
Taken in the same sequence, the figures for `CCOC(=O)C1=C(CN2CCN(C(C(=O)O)C3=CCCCC3)CC2)NC(c2nccs2)=NC1c1ccc(F)cc1Br` (centres undefined) were 29.2 µM, 0.84 µM and 34.8.
On to `CCOC(=O)C1=C(CN2CCN(C(C(=O)O)c3ccc(Cl)cc3)CC2)NC(c2nccs2)=NC1c1ccc(F)cc1Br` (centres undefined), for which the CC50 in series [1] was 22.4 µM. The EC50 with Hepatitis B virus stood at 0.39 µM. Moreover, the selectivity ratio in series [2] was 57.3.
Taken in the same sequence, the figures for `CCOC(=O)C1=C(CN2CCN(C(C(=O)O)c3ccc4c(c3)OCCO4)CC2)NC(c2nccs2)=NC1c1ccc(F)cc1Br` (centres undefined) were 22.4 µM, 0.044 µM and 508.
Consider `CCOC(=O)C1=C(CN2CCN(C(C(=O)O)c3ccc(Br)cc3)CC2)NC(c2nccs2)=NC1c1ccc(F)cc1Br` (centres undefined), for which the CC50 in series [1] is 22.4 µM. Moreover, the EC50 with Hepatitis B virus came out at 1.24 µM. The selectivity ratio in series [2] came out at 18.
Consider `CCOC(=O)C1=C(CN2CCN(C(C(=O)O)c3ccccc3OC)CC2)NC(c2nccs2)=NC1c1ccc(F)cc1Br` (centres undefined), for which the CC50 in series [1] came out at 50 µM. For the same compound, in the series with Hepatitis B virus, the EC50 was 2.35 µM. Also, the selectivity ratio in series [2] stood at 21.3.
For `CCOC(=O)C1=C(CN2CCN(C(C(=O)O)c3ccc(C#N)cc3)CC2)NC(c2nccs2)=NC1c1ccc(F)cc1Br` (centres undefined), the CC50 in series [1] was 29.2 µM. Also, the EC50 in the series with Hepatitis B virus stood at 4.31 µM. The selectivity ratio in series [2] was 6.8.

The values above are taken from ChEMBL document CHEMBL5329208 (RSC Med Chem, 2023).
